The source made the active and inactive calls. The rule behind the calls is not given here.
What was measured:
[1] = target: T1, Peptidyl-prolyl cis-trans isomerase FKBP5 (Homo sapiens, UniProt Q13451); experiment: Binding affinity to FKBP51 (unknown origin) assessed as inhibition constant by fluorescence polarization assay
T1 sequence (Q13451 whole entry): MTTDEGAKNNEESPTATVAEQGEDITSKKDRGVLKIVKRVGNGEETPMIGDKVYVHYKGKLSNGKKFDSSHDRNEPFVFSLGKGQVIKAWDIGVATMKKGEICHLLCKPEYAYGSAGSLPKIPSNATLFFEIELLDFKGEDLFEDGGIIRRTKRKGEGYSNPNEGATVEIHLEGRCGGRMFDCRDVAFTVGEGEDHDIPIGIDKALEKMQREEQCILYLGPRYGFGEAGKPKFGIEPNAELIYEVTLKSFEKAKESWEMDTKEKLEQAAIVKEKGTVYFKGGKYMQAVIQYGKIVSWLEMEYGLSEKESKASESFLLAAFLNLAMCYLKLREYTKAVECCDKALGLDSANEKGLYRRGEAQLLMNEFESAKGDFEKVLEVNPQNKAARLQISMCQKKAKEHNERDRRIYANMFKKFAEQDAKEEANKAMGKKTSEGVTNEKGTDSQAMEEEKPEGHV

[2] = target: T2, Peptidyl-prolyl cis-trans isomerase FKBP4 (Homo sapiens, UniProt Q02790); experiment: Binding affinity to FKBP52 (unknown origin) assessed as inhibition constant by fluorescence polarization assay
T2 sequence (Q02790 whole entry): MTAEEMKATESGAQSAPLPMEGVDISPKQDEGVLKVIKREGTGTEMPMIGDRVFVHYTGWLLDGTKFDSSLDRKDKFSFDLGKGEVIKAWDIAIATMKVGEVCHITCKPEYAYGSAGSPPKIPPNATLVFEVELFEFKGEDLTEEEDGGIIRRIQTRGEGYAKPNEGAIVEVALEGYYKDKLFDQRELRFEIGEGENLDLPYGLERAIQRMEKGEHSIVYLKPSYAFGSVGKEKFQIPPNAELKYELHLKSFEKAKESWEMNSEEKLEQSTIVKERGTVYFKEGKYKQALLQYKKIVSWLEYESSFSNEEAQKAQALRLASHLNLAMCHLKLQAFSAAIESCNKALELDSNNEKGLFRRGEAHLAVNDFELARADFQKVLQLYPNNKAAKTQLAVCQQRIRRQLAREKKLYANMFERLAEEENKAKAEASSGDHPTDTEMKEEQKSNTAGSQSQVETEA

[3] = target: T1, Peptidyl-prolyl cis-trans isomerase FKBP5; experiment: Binding affinity to FKBP51 (unknown origin)
[4] = Half life in C57BL/6 mouse at 10 mg/kg, ip measured after 6 hrs; format: ADME, organism-based; conditions: in vivo
[5] = target: T2, Peptidyl-prolyl cis-trans isomerase FKBP4; experiment: Inhibition of FKBP52 (unknown origin) expressed in HEK293T cells incubated for 2 hrs by NanoBRET assay; format: cell-based
[6] = Tmax in C57BL/6 mouse at 10 mg/kg, ip measured after 6 hrs; format: ADME, organism-based; conditions: in vivo
[7] = Cmax in C57BL/6 mouse at 10 mg/kg, ip measured after 6 hrs; format: ADME, organism-based; design: time 6 hrs, dose 10 mg/kg, route ip; conditions: in vivo
[8] = Volume of distribution in C57BL/6 mouse at 10 mg/kg, ip measured after 6 hrs; format: ADME, organism-based; conditions: in vivo
[9] = target: T1, Peptidyl-prolyl cis-trans isomerase FKBP5; experiment: Inhibition of FKBP51 (unknown origin) expressed in HEK293T cells incubated for 2 hrs by NanoBRET assay; format: cell-based
[10] = target: Transient receptor potential cation channel subfamily V member 1 (Mus musculus) (UniProt Q704Y3); experiment: Desensitization of TRPV1 in C57BL/Nrj mouse dorsal root ganglion primary sensory neurons assessed as reduction in capsaicin-stimulated calcium influx at 0.5 uM preincubated for 2 mins followed by capsaicin stimulation and measured after 20 secs; format: tissue-based; conditions: Primary sensory neuron, time 140.0 sec
Chain of Transient receptor potential cation channel subfamily V member 1 (Mus musculus) (Q704Y3 whole entry): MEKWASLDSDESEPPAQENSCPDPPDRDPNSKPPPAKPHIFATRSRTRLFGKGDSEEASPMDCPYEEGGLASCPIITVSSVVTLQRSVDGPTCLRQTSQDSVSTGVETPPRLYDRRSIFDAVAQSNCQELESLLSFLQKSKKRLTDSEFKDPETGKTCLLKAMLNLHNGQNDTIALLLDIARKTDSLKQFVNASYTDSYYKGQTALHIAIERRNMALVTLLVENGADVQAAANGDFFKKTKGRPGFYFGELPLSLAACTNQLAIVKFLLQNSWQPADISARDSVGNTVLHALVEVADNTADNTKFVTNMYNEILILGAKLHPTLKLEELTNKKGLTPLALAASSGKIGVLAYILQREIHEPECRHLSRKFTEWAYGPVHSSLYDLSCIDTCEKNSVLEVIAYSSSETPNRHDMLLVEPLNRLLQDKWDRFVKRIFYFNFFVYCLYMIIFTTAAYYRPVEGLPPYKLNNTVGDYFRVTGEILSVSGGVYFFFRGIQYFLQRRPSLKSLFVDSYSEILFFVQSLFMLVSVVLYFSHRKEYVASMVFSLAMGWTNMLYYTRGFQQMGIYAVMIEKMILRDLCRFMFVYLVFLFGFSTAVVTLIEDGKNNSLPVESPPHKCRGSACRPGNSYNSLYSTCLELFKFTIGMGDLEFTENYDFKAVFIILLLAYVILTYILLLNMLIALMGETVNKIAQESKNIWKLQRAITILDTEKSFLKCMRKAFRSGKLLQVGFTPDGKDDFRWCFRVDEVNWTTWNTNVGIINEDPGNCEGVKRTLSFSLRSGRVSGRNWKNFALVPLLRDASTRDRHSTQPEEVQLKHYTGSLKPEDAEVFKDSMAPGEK

[11] = target: Transient receptor potential cation channel subfamily V member 1 (Mus musculus) (UniProt Q704Y3); experiment: Desensitization of TRPV1 in naive C57BL/Nrj mouse dorsal root ganglion primary sensory neurons assessed as reduction in capsaicin-stimulated calcium influx at 1 uM preincubated for 2 mins followed by capsaicin stimulation and measured after 20 secs relative to control; format: tissue-based; design: scale not given: the % may be the effect or the level left; conditions: Primary sensory neuron, time 140.0 sec
[12] = Drug penetration in C57BL/6 mouse brain at 10 mg/kg, ip administered as single dose and measured after 6 hrs; format: ADME, organism-based; conditions: in vivo
[13] = Drug accumulation in C57BL/6 mouse gonadal white adipose tissue at 10 mg/kg, ip administered as single dose and measured after 6 hrs; format: ADME, organism-based; conditions: in vivo

Structure (SMILES) | Ki [1] | Ki [2] | also measured
COc1ccc(CC[C@@H](OC(=O)[C@@H]2CCCCN2C(=O)[C@H](c2cc(OC)c(OC)c(OC)c2)c2ccc(C#N)s2)c2cccc(OCC(=O)O)c2)cc1OC | 23 nM | 2730 nM | –
COc1ccc(CC[C@@H](OC(=O)[C@@H]2CCCCN2C(=O)[C@H](c2cc(OC)c(OC)c(OC)c2)c2ccc(C)s2)c2cccc(OCC(=O)O)c2)cc1OC | 7 nM | 1030 nM | –
COc1ccc(CC[C@H]2OC(=O)[C@@H]3CCCCN3C(=O)[C@@H](C3CCCCC3)c3cc(OC)c(OC)c(c3)OC[C@H](O)[C@H](O)COc3cccc2c3)cc1OC | – | – | Ki [3]: 5 nM
COc1ccc(CC[C@@H](OC(=O)[C@@H]2CCCCN2C(=O)C(c2cccs2)C2CCCCC2)c2cccc(OCC(=O)O)c2)cc1OC (stereo partly specified) | 442 nM | > 30000 nM | –
COc1ccc(CC[C@@H](OC(=O)[C@@H]2CCCCN2C(=O)[C@H](c2cc(OC)c(OC)c(OC)c2)c2cccs2)c2cccc(OCC(=O)O)c2)cc1OC | 103 nM | 10200 nM | –
COc1ccc(CC[C@H]2OC(=O)[C@@H]3CCCCN3C(=O)[C@@H](C3CCCCC3)NC(=O)C3(CC3)NC(=O)COc3cccc2c3)cc1OC | – | – | Ki [3]: 400 nM
C=CC[C@@H](C(=O)N1CCCC[C@H]1C(=O)O[C@H](CCc1ccc(OC)c(OC)c1)c1cccc(OCC(=O)O)c1)c1ccc(Cl)s1 | 223 nM | > 10000 nM | –
COc1ccc(CC[C@@H](OC(=O)[C@@H]2CCCCN2C(=O)[C@H](c2cc(OC)c(OC)c(OC)c2)c2ccc(C3CC3)s2)c2cccc(OCC(=O)O)c2)cc1OC | 41 nM | > 1000 nM | –
COc1ccc(CC[C@@H](OC(=O)[C@@H]2CCCCN2C(=O)[C@@H](CN2CCOCC2)c2cc(OC)c(OC)c(OC)c2)c2cccc(OCC(=O)O)c2)cc1OC | 8 nM | 2160 nM | half-life [4]: 3.7 h; IC50 [5]: 3180 nM; Tmax [6]: 1 h; Cmax [7]: 3060 ng/mL; Vd [8]: 0.1 L; IC50 [9]: 196 nM
COc1ccc(CC[C@@H](OC(=O)[C@@H]2CCCCN2C(=O)[C@H](C)c2ccc(Cl)s2)c2cccc(OCC(=O)O)c2)cc1OC | 300 nM | > 50000 nM | –
COc1ccc(CC[C@@H](OC(=O)[C@@H]2CCCCN2C(=O)C(c2ccc(Cl)s2)C2CCCCC2)c2cccc(OCC(=O)O)c2)cc1OC (stereo partly specified) | 154 nM | > 10000 nM | –
COc1ccc(CC[C@@H](OC(=O)[C@@H]2CCCCN2C(=O)[C@@H](c2ccccc2)c2cc(OC)c(OC)c(OC)c2)c2cccc(OCC(=O)O)c2)cc1OC | 118 nM | 43800 nM | –
COc1ccc(CC[C@@H](OC(=O)[C@@H]2CCCCN2C(=O)[C@H](c2cc(OC)c(OC)c(OC)c2)c2ccc(Cl)s2)c2cccc(OCC(=O)O)c2)cc1OC | 4 nM | 950 nM | –
COc1ccc(CC[C@@H](OC(=O)[C@@H]2CCCCN2C(=O)[C@H](c2cc(OC)c(OC)c(OC)c2)C2CCCCC2)c2cccc(OCC(=O)O)c2)cc1OC | 6 nM | 3860 nM | –
CC[C@@H](C(=O)N1CCCC[C@H]1C(=O)O[C@H](CCc1ccc(OC)c(OC)c1)c1cccc(OCC(=O)O)c1)c1ccc(Cl)s1 | 210 nM | > 10000 nM | –
COc1ccc(CCC(OC(=O)C2CCCCN2C(=O)[C@H](c2cc(OC)c(OC)c(OC)c2)c2ccc(C)s2)c2cccc(OCCN3CCOCC3)c2)cc1OC (single isomer, unassigned) | 17 nM | 775 nM | Activity [10]: Active; Activity [11]: 50%; IC50 [9]: 613 nM
COc1ccc(CC[C@@H](OC(=O)[C@@H]2CCCCN2C(=O)[C@@H](c2ccsc2)c2cc(OC)c(OC)c(OC)c2)c2cccc(OCC(=O)O)c2)cc1OC | 140 nM | 18000 nM | –
COc1ccc(CC[C@@H](OC(=O)[C@@H]2CCCCN2C(=O)[C@H](c2cc(OC)c(OC)c(OC)c2)c2ccc(Br)s2)c2cccc(OCC(=O)O)c2)cc1OC | 7 nM | 436 nM | –
CCc1ccc([C@H](C(=O)N2CCCC[C@H]2C(=O)O[C@H](CCc2ccc(OC)c(OC)c2)c2cccc(OCC(=O)O)c2)c2cc(OC)c(OC)c(OC)c2)s1 | 13 nM | > 1000 nM | –
COc1ccc(CCC(OC(=O)C2CCCCN2C(=O)[C@H](c2cc(OC)c(OC)c(OC)c2)c2ccc(Cl)s2)c2cccc(OCCN3CCOCC3)c2)cc1OC (single isomer, unassigned) | 19 nM | 774 nM | half-life [4]: 4.3 h; Activity [11]: 50%; IC50 [5]: 2900 nM; Drug uptake [12]: Active; Tmax [6]: 0.5 h; Cmax [7]: 990 ng/mL; Vd [8]: 0.3 L; Drug uptake [13]: Active; IC50 [9]: 584 nM
